Data on 27 compounds can be found in patent publication US20010044445A1, “AZOLE INHIBITORS OF CYTOKINE PRODUCTION” (priority 1999, published 2001).

A value given as a limit tells only on which side of the number the result lay.

The test system of series [1] is Human peripheral blood mononuclear cells. Description: Human Concanavalin-A Proliferation Assay (Con HU Assay). Format: cell-based. The note with it: Homo sapiens, PBMC, concanavalin-A stimulated human PBMC; for inhibition at 100 µM / inhibition at 1 µM / inhibition at 10 µM: 72 h, 3 days, read-out: % Inhibition of proliferation (at concentrations of 1,10, or 100 μm); for inhibition at 100 µM: concentration 100 μm (in parentheses in the cell); for IC50: tritiated thymidine; for inhibition at 1 µM: concentration 1 μm (in parentheses in the cell); for inhibition at 10 µM: concentration 10 μm (in parentheses in the cell). The method, boiled down: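 Proliferation read as tritiated thymidine uptake (0.5 μCi/well, 6 h pulse on day 3) in human PBMC cultured 3 days with 2.5 μg/ml (final) concanavalin-A. Cells, 50,000 per well in supplemented RPMI 1640 with 10% FBS, received compound 15 min before mitogen.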

Take `O=C(Nc1ccc(-n2nc(C(F)(F)F)cc2C(F)(F)F)cc1)Nc1cccc([N+](=O)[O-])c1` [Example 31, N-[4-[3,5-bis(trifluoromethyl)-1H-pyrazol-1-yl]phenyl]-N′-(3-nitrophenyl)urea]: the melting point lay within 203 to 204 °C. In series [1], the inhibition at 100 µM stood at 100% and the 50% inhibitory concentration (IC50) worked out at 4040 nM.

In turn, `O=C(Nc1ccc(F)cc1)Nc1ccc(-n2nc(C(F)(F)F)cc2C(F)(F)F)cc1` [Example 32, N-[4-[3,5-bis(trifluoromethyl)-1H-pyrazol-1-yl]phenyl]-N′-(4-fluorophenyl)urea] registered a melting point of 201 to 202 °C. Also, in series [1], the inhibition at 100 µM turned out to be 100% and the midpoint of inhibition, the IC50, lay at 8440 nM.

Turning to `CC1(C(=O)Nc2ccc(-n3nc(C(F)(F)F)cc3C(F)(F)F)cc2)CC1` [Example 35, N-[4-[3,5-bis(trifluoromethyl)-1H-pyrazol-1-yl]phenyl]-1-methylcyclopropanecarboxamide], the melting point lay in the range of 109 to 110 °C. Besides, the inhibition at 1 µM in series [1] amounted to 65%.

Take `Cc1c(NC(=O)Nc2ccc(-n3nc(C(F)(F)F)cc3C(F)(F)F)cc2)cccc1[N+](=O)[O-]` [Example 40, N-[4-[3,5-bis(trifluoromethyl)-1H-pyrazol-1-yl]phenyl]-N′-(2-methyl-3-nitrophenyl)urea]: the melting point lay within 235 to 236 °C. In addition, in series [1], the inhibition at 1 µM turned out to be 36%.

On to `O=C(Nc1ccc(-n2nc(C(F)(F)F)cc2C(F)(F)F)cc1)Nc1ccc([N+](=O)[O-])cc1Cl` [Example 41, N-[4-[3,5-bis(trifluoromethyl)-1H-pyrazol-1-yl]phenyl]-N′-(2-chloro-4-nitrophenyl)urea], for which the melting point was 229 to 230 °C. In series [1], the inhibition at 10 µM came out at 100% and the half-inhibitory concentration (IC50) is 343 nM.

Consider `CC(=O)c1ccc(NC(=O)Nc2ccc(-n3nc(C(F)(F)F)cc3C(F)(F)F)cc2)cc1` [Example 42, N-(4-acetylphenyl)-N′-[4-[3,5-bis(trifluoromethyl)-1H-pyrazol-1-yl]phenyl]urea], for which the melting point was 230 to 231 °C. The inhibition at 1 µM in series [1] is 9%.

In turn, `Cc1ccc(NC(=O)Nc2ccc(-n3nc(C(F)(F)F)cc3C(F)(F)F)cc2)c([N+](=O)[O-])c1` [Example 43, N-[4-[3,5-bis(trifluoromethyl)-1H-pyrazol-1-yl]phenyl]-N′-(4-methyl-2-nitrophenyl)urea] gave a melting point of 213 to 214 °C. Besides, in series [1], the inhibition at 10 µM came out at 98% and inhibition was half-maximal at 354 nM (IC50).

`Cc1ccc(C(=O)Nc2ccc(-n3nc(C(F)(F)F)cc3C(F)(F)F)cc2)s1` [Example 44, N-[4-[3,5-bis(trifluoromethyl)-1H-pyrazol-1-yl]phenyl]-5-methyl-2-thiophenecarboxamide] yielded a melting point of 200 to 202 °C. The inhibition at 1 µM in series [1] came to 29%.

In turn, `Cc1cc(Br)cc(C)c1NC(=O)Nc1ccc(-n2nc(C(F)(F)F)cc2C(F)(F)F)cc1` [Example 45, N-[4-[3,5-bis(trifluoromethyl)-1H-pyrazol-1-yl]phenyl]-N′-(4-bromo-2,6-dimethylphenyl)urea] yielded a melting point greater than 230 °C. For the same compound, the inhibition at 1 µM in series [1] was 18%.

As to `O=C(Nc1ccc(-n2nc(C(F)(F)F)cc2C(F)(F)F)cc1)c1ccc(-n2cccc2)cc1` [Example 46, N-[4-[3,5-bis(trifluoromethyl)-1H-pyrazol-1-yl]phenyl]-4-(1H-pyrrol-1-yl)benzamide], the melting point lay in the range of 249 to 252 °C. In series [1], the inhibition at 1 µM came out at 10%.

For `O=C(Nc1ccc(-n2nc(C(F)(F)F)cc2C(F)(F)F)cc1)Nc1ccc(Cl)cc1[N+](=O)[O-]` [Example 48, N-[4-[3,5-bis(trifluoromethyl)-1H-pyrazol-1-yl]phenyl]-N′-(4-chloro-2-nitrophenyl)urea], the melting point was 225 to 227 °C. Also, in series [1], the inhibition at 1 µM stood at 85% and the 50% inhibitory concentration (IC50) came out at 468 nM.

With `COc1cccc2cc(C(=O)Nc3ccc(-n4nc(C(F)(F)F)cc4C(F)(F)F)cc3)oc12` [Example 49, N-[4-[3,5-bis(trifluoromethyl)-1H-pyrazol-1-yl]phenyl]-7-methoxy-2-benzofurancarboxamide], the melting point was in the range of 109 to 110 °C. For the same compound, the inhibition at 1 µM in series [1] amounted to 9%.

`O=C(Nc1ccc(-n2nc(C(F)(F)F)cc2C(F)(F)F)cc1)c1cccc(CO)c1` [Example 51, N-[4-[3,5-bis(trifluoromethyl)-1H-pyrazol-1-yl]phenyl]-3-(hydroxymethyl)benzamide]: the melting point fell in the range of 160 to 162 °C. Also, in series [1], the inhibition at 10 µM was determined as 100% and the IC50 turned out to be 778 nM.

The compound `N#CCC(=O)Nc1ccc(-n2nc(C(F)(F)F)cc2C(F)(F)F)cc1` [Example 52, N-[4-[3,5-bis(trifluoromethyl)-1H-pyrazol-1-yl]phenyl]-2-cyanoacetamide] had a melting point of 140 to 143 °C. The inhibition at 1 µM in series [1] was determined as 26%.

In the case of `COC(C(=O)Nc1ccc(-n2nc(C(F)(F)F)cc2C(F)(F)F)cc1)(c1ccccc1)C(F)(F)F` (stereo not drawn) [Example 55, N-[4-[3,5-bis(trifluoromethyl)-1H-pyrazol-1-yl]phenyl]-α-methoxy-α-(trifluoromethyl)benzeneacetamide], the melting point is 127 to 129 °C. For the same compound, the inhibition at 1 µM in series [1] was found to be 13%.

As to `CCCCCCC(=O)Nc1ccc(-n2nc(C(F)(F)F)cc2C(F)(F)F)cc1` [Example 56, N-[4-[3,5-bis(trifluoromethyl)-1H-pyrazol-1-yl]phenyl]heptanamide], the melting point lay within 88 to 90 °C. Further, the inhibition at 1 µM in series [1] came to 32%.

With `O=C(Nc1ccc(-n2nc(C(F)(F)F)cc2C(F)(F)F)cc1)c1ccccc1Oc1ccccc1` [Example 57, N-[4-[3,5-bis(trifluoromethyl)-1H-pyrazol-1-yl]phenyl]-2-phenoxybenzamide], the melting point was 108 to 109 °C. Further, the inhibition at 1 µM in series [1] turned out to be 5%.

Take `Nc1cccc(C(=O)Nc2ccc(-n3nc(C(F)(F)F)cc3C(F)(F)F)cc2)c1` [Example 58, 3-Amino-N-[4-[3,5-bis(trifluoromethyl)-1H-pyrazol-1-yl]phenyl]benzamide]: the melting point was in the range of 203 to 204 °C. In series [1], the inhibition at 10 µM is 97% and it took 484 nM to reach half-maximal inhibition (IC50).

The compound `Nc1ccc(C(=O)Nc2ccc(-n3nc(C(F)(F)F)cc3C(F)(F)F)cc2)cc1` [Example 59, 4-Amino-N-[4-[3,5-bis(trifluoromethyl)-1H-pyrazol-1-yl]phenyl]benzamide] yielded a melting point greater than 240 °C. Besides, the inhibition at 1 µM in series [1] amounted to 54%.

In the case of `[N-]=[N+]=Nc1ccc(C(=O)Nc2ccc(-n3nc(C(F)(F)F)cc3C(F)(F)F)cc2)cc1` [Example 60, 4-Azido-N-[4-[3,5-bis(trifluoromethyl)-1H-pyrazol-1-yl]phenyl]benzamide], the melting point lay in the range of 182 to 184 °C. In series [1], the inhibition at 100 µM was determined as 100% and the IC50 worked out at 296 nM.

Consider `CSCCC(=O)Nc1ccc(-n2nc(C(F)(F)F)cc2C(F)(F)F)cc1` [Example 65, N-[4-[3,5-bis(trifluoromethyl)-1H-pyrazol-1-yl]phenyl]-3-(methylthio)propanamide], for which the melting point was in the range of 122 to 123 °C. Further, in series [1], the inhibition at 100 µM is 98% and half-maximal inhibition (IC50) was put at 1820 nM.

With `N#Cc1ccc(C(=O)Nc2ccc(-n3nc(C(F)(F)F)cc3C(F)(F)F)cc2)cc1` [Example 67, N-[4-[3,5-bis(trifluoromethyl)-1H-pyrazol-1-yl]phenyl]-4-cyanobenzamide], the melting point is 169 to 171 °C. In series [1], the inhibition at 100 µM was found to be 100% and the IC50 was 254 nM.

The compound `O=C(Nc1ccc(-n2nc(C(F)(F)F)cc2C(F)(F)F)cc1)C1CC1c1ccccc1` (stereo not drawn) [Example 68, N-[4-[3,5-bis(trifluoromethyl)-1H-pyrazol-1-yl]phenyl]-2-phenylcyclopropanecarboxamide] registered a melting point of 176 to 178 °C. Also, in series [1], the inhibition at 100 µM was determined as 99% and the IC50 was 2440 nM.

In the case of `O=C(Nc1ccc(-n2nc(C(F)(F)F)cc2C(F)(F)F)cc1)c1ccc(I)cc1` [Example 69, N-[4-[3,5-bis(trifluoromethyl)-1H-pyrazol-1-yl]phenyl]-4-iodobenzamide], the melting point is 196 to 198 °C. Moreover, in series [1], the inhibition at 100 µM is 98% and half-maximal inhibition (IC50) was put at 506 nM.

With `O=C(CCCl)Nc1ccc(-n2nc(C(F)(F)F)cc2C(F)(F)F)cc1` [Example 70, N-[4-[3,5-bis(trifluoromethyl)-1H-pyrazol-1-yl]phenyl]-3-chloropropanamide], the melting point lay in the range of 144 to 145 °C. Moreover, in series [1], the inhibition at 100 µM was 100% and the IC50 came out at 913 nM.

For `COc1ccc(C(=O)Nc2ccc(-n3nc(C(F)(F)F)cc3C(F)(F)F)cc2)cc1` [Example 71, N-[4-[3,5-bis(trifluoromethyl)-1H-pyrazol-1-yl]phenyl]-4-methoxybenzamide], the melting point fell in the range of 205 to 207 °C. Further, in series [1], the inhibition at 10 µM is 87% and the IC50 stood at 544 nM.

The compound `O=C(Nc1ccc(-n2nc(C(F)(F)F)cc2C(F)(F)F)cc1)c1ccc(O)cc1` [Example 73, N-[4-[3,5-bis(trifluoromethyl)-1H-pyrazol-1-yl]phenyl]-4-hydroxybenzamide] had a melting point greater than 245 °C. Also, in series [1], the inhibition at 10 µM amounted to 93% and 388 nM corresponded to half-maximal inhibition (IC50).
